{"source": "PubChem BioAssay AID1259407", "about": "(Chemical Carcinogenesis Research Information System (CCRIS), 2018)", "system": "CCRIS mutagenicity, Ames/micronucleus/aberration tests", "test": "CCRIS mutagenicity studies", "note": "Active and inactive are the calls of the source. No rule for the calls is given here.", "data": [{"molecule": "COP(=S)(OC)Oc1nc(Cl)c(Cl)cc1Cl", "values": [{"measurement": "mutagenic call", "setting": "Test System: AMES SALMONELLA TYPHIMURIUM, Strain/Indicator: TA98, Metabolic Activation: NONE", "value": "inactive; negative"}, {"measurement": "mutagenic call", "setting": "Test System: AMES SALMONELLA TYPHIMURIUM, Strain/Indicator: TA98, Metabolic Activation: RAT, LIVER, S-9, AROCLOR 1254", "value": "inactive; negative"}, {"measurement": "mutagenic call", "setting": "Test System: AMES SALMONELLA TYPHIMURIUM, Strain/Indicator: TA100, Metabolic Activation: NONE", "value": "inactive; negative"}, {"measurement": "mutagenic call", "setting": "Test System: AMES SALMONELLA TYPHIMURIUM, Strain/Indicator: TA100, Metabolic Activation: RAT, LIVER, S-9, AROCLOR 1254", "value": "inactive; negative"}, {"measurement": "mutagenic call", "setting": "Test System: AMES SALMONELLA TYPHIMURIUM, Strain/Indicator: TA102, Metabolic Activation: NONE", "value": "inactive; negative"}, {"measurement": "mutagenic call", "setting": "Test System: AMES SALMONELLA TYPHIMURIUM, Strain/Indicator: TA102, Metabolic Activation: RAT, LIVER, S-9, AROCLOR 1254", "value": "inactive; negative"}, {"measurement": "mutagenic call", "setting": "Test System: AMES SALMONELLA TYPHIMURIUM, Strain/Indicator: TA1535, Metabolic Activation: NONE", "value": "inactive; negative"}, {"measurement": "mutagenic call", "setting": "Test System: AMES SALMONELLA TYPHIMURIUM, Strain/Indicator: TA1535, Metabolic Activation: RAT, LIVER, S-9, AROCLOR 1254", "value": "inactive; negative"}, {"measurement": "mutagenic call", "setting": "Test System: AMES SALMONELLA TYPHIMURIUM, Strain/Indicator: TA1537, Metabolic Activation: NONE", "value": "inactive; negative"}, {"measurement": "mutagenic call", "setting": "Test System: AMES SALMONELLA TYPHIMURIUM, Strain/Indicator: TA1537, Metabolic Activation: RAT, LIVER, S-9, AROCLOR 1254", "value": "inactive; negative"}]}, {"molecule": "COc1cc(Cc2cnc(N)nc2N)cc(OC)c1OC", "values": [{"measurement": "mutagenic call", "setting": "Test System: AMES SALMONELLA TYPHIMURIUM, Strain/Indicator: TA97A, Metabolic Activation: NONE, Method: STANDARD PLATE", "value": "inactive; negative"}, {"measurement": "mutagenic call", "setting": "Test System: AMES SALMONELLA TYPHIMURIUM, Strain/Indicator: TA97A, Metabolic Activation: RAT, LIVER, S-9, PHENOBARBITAL, Method: STANDARD PLATE", "value": "inactive; negative"}, {"measurement": "mutagenic call", "setting": "Test System: AMES SALMONELLA TYPHIMURIUM, Strain/Indicator: TA98, Metabolic Activation: NONE, Method: STANDARD PLATE", "value": "active; positive"}, {"measurement": "mutagenic call", "setting": "Test System: AMES SALMONELLA TYPHIMURIUM, Strain/Indicator: TA98, Metabolic Activation: RAT, LIVER, S-9, PHENOBARBITAL, Method: STANDARD PLATE", "value": "active; positive"}, {"measurement": "mutagenic call", "setting": "Test System: AMES SALMONELLA TYPHIMURIUM, Strain/Indicator: TA100, Metabolic Activation: NONE, Method: STANDARD PLATE", "value": "inactive; negative"}, {"measurement": "mutagenic call", "setting": "Test System: AMES SALMONELLA TYPHIMURIUM, Strain/Indicator: TA100, Metabolic Activation: RAT, LIVER, S-9, PHENOBARBITAL, Method: STANDARD PLATE", "value": "inactive; negative"}, {"measurement": "mutagenic call", "setting": "Test System: AMES SALMONELLA TYPHIMURIUM, Strain/Indicator: TA102, Metabolic Activation: NONE, Method: STANDARD PLATE", "value": "inactive; negative"}, {"measurement": "mutagenic call", "setting": "Test System: AMES SALMONELLA TYPHIMURIUM, Strain/Indicator: TA102, Metabolic Activation: RAT, LIVER, S-9, PHENOBARBITAL, Method: STANDARD PLATE", "value": "inactive; negative"}, {"measurement": "mutagenic call", "setting": "Test System: AMES SALMONELLA TYPHIMURIUM, Strain/Indicator: TA1538, Metabolic Activation: NONE, Method: STANDARD PLATE", "value": "active; positive"}, {"measurement": "mutagenic call", "setting": "Test System: AMES SALMONELLA TYPHIMURIUM, Strain/Indicator: TA1538, Metabolic Activation: RAT, LIVER, S-9, PHENOBARBITAL, Method: STANDARD PLATE", "value": "active; positive"}, {"measurement": "mutagenic call", "setting": "Test System: E.COLI, Strain/Indicator: WP2UVRA/PKM101, Metabolic Activation: NONE, Method: PREINCUBATION", "value": "inactive; negative"}, {"measurement": "mutagenic call", "setting": "Test System: E.COLI, Strain/Indicator: WP2UVRA/PKM101, Metabolic Activation: RAT LIVER S-9, PHENOBARBITAL AND 5,6-BENZOFLAVONE, Method: PREINCUBATION", "value": "inactive; negative"}]}, {"molecule": "Nc1ccc(NCCO)c([N+](=O)[O-])c1", "values": [{"measurement": "mutagenic call", "setting": "Test System: AMES SALMONELLA TYPHIMURIUM, Strain/Indicator: TA97, Metabolic Activation: HAMSTER, LIVER, S-9, AROCLOR 1254 (10%), Method: PREINCUBATION", "value": "active; positive"}, {"measurement": "mutagenic call", "setting": "Test System: AMES SALMONELLA TYPHIMURIUM, Strain/Indicator: TA97, Metabolic Activation: HAMSTER, LIVER, S-9, AROCLOR 1254, Method: PREINCUBATION", "value": "active; positive"}, {"measurement": "mutagenic call", "setting": "Test System: AMES SALMONELLA TYPHIMURIUM, Strain/Indicator: TA97, Metabolic Activation: NONE, Method: PREINCUBATION", "value": "active; positive"}, {"measurement": "mutagenic call", "setting": "Test System: AMES SALMONELLA TYPHIMURIUM, Strain/Indicator: TA97, Metabolic Activation: RAT, LIVER, S-9, AROCLOR 1254 (10%), Method: PREINCUBATION", "value": "active; positive"}, {"measurement": "mutagenic call", "setting": "Test System: AMES SALMONELLA TYPHIMURIUM, Strain/Indicator: TA97, Metabolic Activation: RAT, LIVER, S-9, AROCLOR 1254, Method: PREINCUBATION", "value": "active; positive"}, {"measurement": "mutagenic call", "setting": "Test System: AMES SALMONELLA TYPHIMURIUM, Strain/Indicator: TA98, Metabolic Activation: HAMSTER, LIVER, S-9, AROCLOR 1254 (10%), Method: PREINCUBATION", "value": "active; positive"}, {"measurement": "mutagenic call", "setting": "Test System: AMES SALMONELLA TYPHIMURIUM, Strain/Indicator: TA98, Metabolic Activation: HAMSTER, LIVER, S-9, AROCLOR 1254, Method: PREINCUBATION", "value": "active; positive"}, {"measurement": "mutagenic call", "setting": "Test System: AMES SALMONELLA TYPHIMURIUM, Strain/Indicator: TA98, Metabolic Activation: NONE, Method: PREINCUBATION", "value": "active; positive"}, {"measurement": "mutagenic call", "setting": "Test System: AMES SALMONELLA TYPHIMURIUM, Strain/Indicator: TA98, Metabolic Activation: RAT, LIVER, S-9, AROCLOR 1254 (10%), Method: PREINCUBATION", "value": "active; positive"}, {"measurement": "mutagenic call", "setting": "Test System: AMES SALMONELLA TYPHIMURIUM, Strain/Indicator: TA98, Metabolic Activation: RAT, LIVER, S-9, AROCLOR 1254, Method: PREINCUBATION", "value": "active; positive"}, {"measurement": "mutagenic call", "setting": "Test System: AMES SALMONELLA TYPHIMURIUM, Strain/Indicator: TA100, Metabolic Activation: HAMSTER, LIVER, S-9, AROCLOR 1254 (10%), Method: PREINCUBATION", "value": "active; positive"}, {"measurement": "mutagenic call", "setting": "Test System: AMES SALMONELLA TYPHIMURIUM, Strain/Indicator: TA100, Metabolic Activation: HAMSTER, LIVER, S-9, AROCLOR 1254, Method: PREINCUBATION", "value": "active; positive"}, {"measurement": "mutagenic call", "setting": "Test System: AMES SALMONELLA TYPHIMURIUM, Strain/Indicator: TA100, Metabolic Activation: NONE, Method: PREINCUBATION", "value": "active; positive"}, {"measurement": "mutagenic call", "setting": "Test System: AMES SALMONELLA TYPHIMURIUM, Strain/Indicator: TA100, Metabolic Activation: RAT, LIVER, S-9, AROCLOR 1254 (10%), Method: PREINCUBATION", "value": "active; positive"}, {"measurement": "mutagenic call", "setting": "Test System: AMES SALMONELLA TYPHIMURIUM, Strain/Indicator: TA100, Metabolic Activation: RAT, LIVER, S-9, AROCLOR 1254, Method: PREINCUBATION", "value": "active; positive"}, {"measurement": "mutagenic call", "setting": "Test System: AMES SALMONELLA TYPHIMURIUM, Strain/Indicator: TA1535, Metabolic Activation: HAMSTER, LIVER, S-9, AROCLOR 1254 (10%), Method: PREINCUBATION", "value": "inactive; negative"}, {"measurement": "mutagenic call", "setting": "Test System: AMES SALMONELLA TYPHIMURIUM, Strain/Indicator: TA1535, Metabolic Activation: HAMSTER, LIVER, S-9, AROCLOR 1254, Method: PREINCUBATION", "value": "inactive; negative"}, {"measurement": "mutagenic call", "setting": "Test System: AMES SALMONELLA TYPHIMURIUM, Strain/Indicator: TA1535, Metabolic Activation: NONE, Method: PREINCUBATION", "value": "inactive; negative"}, {"measurement": "mutagenic call", "setting": "Test System: AMES SALMONELLA TYPHIMURIUM, Strain/Indicator: TA1535, Metabolic Activation: RAT, LIVER, S-9, AROCLOR 1254 (10%), Method: PREINCUBATION", "value": "inactive; negative"}, {"measurement": "mutagenic call", "setting": "Test System: AMES SALMONELLA TYPHIMURIUM, Strain/Indicator: TA1535, Metabolic Activation: RAT, LIVER, S-9, AROCLOR 1254, Method: PREINCUBATION", "value": "inactive; negative"}]}]}
